Measurements reported in patent US11008346B2, “Beta-lactamase inhibitors” (priority 2014, dated 2021).

Tests used:
SHV-5 β-lactamase = target: T1, SHV-5 β-lactamase (Klebsiella pneumoniae, UniProt P0A3M1); test: β-lactamase enzyme inhibition, SHV-5; assay type: biochemical
T1 construct: made in house; host or cells: E. coli BL21(DE3)
Procedure, shortened: (§1)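 IC50 values reflect inhibitor concentrations halving the initial hydrolysis rate relative to uninhibited wells. Untagged recombinant enzymes were exposed to inhibitor at 37° C for 15 min before substrate addition: 100 μM nitrocefin for OXA-1 and p99 AmpC, imipenem for KPC-2, cefotaxime for SHV-5, each monitored spectrophotometrically for 10 min.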

KPC-2 β-lactamase = target: T2, KPC-2 β-lactamase (Klebsiella pneumoniae, UniProt Q9F663); test: β-lactamase enzyme inhibition, KPC-2; assay type: biochemical; settings: imipenem substrate, 300 nm; 15 min at 37° C. preincubation; read-out: IC50 KPC-2 (Class A)
T2 construct: made in house; host or cells: E. coli BL21(DE3)
Procedure, shortened: as §1

[1] = target: T3, VIM-2 metallo β-lactamase (Pseudomonas aeruginosa, UniProt Q9K2N0); test: β-lactamase enzyme inhibition, VIM-2; assay type: biochemical; settings: Nitrocefin 100 μM, 486 nm; 15 min at 37° C. preincubation; read-out: IC50 VIM-2 (Class B)
T3 construct: made in house; host or cells: E. coli BL21(DE3)
Procedure, shortened: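 VIM-2 purified by Q sepharose anion exchange (50 mM Hepes pH 7.5, 0-600 mM NaCl gradient, two runs, >90% purity). Enzyme preincubated with inhibitor 15 min at 37° C; nitrocefin 100 μM final, absorbance at 486 nm followed 10 min. IC50 from initial hydrolysis rates versus inhibitor-free controls.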

p99 AmpC β-lactamase = target: T4, p99 AmpC β-lactamase (Enterobacter cloacae, UniProt P05364); test: β-lactamase enzyme inhibition, p99 AmpC; assay type: biochemical
T4 construct: made in house; host or cells: E. coli BL21(DE3)
Procedure, shortened: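 Native untagged E. cloacae p99 AmpC was expressed in E. coli BL21(DE3) and purified by cation exchange and gel filtration. Enzyme was preincubated with inhibitor at 37°C for 15 min.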

OXA-1 β-lactamase = target: T5, OXA-1 β-lactamase (Escherichia coli, UniProt P13661); test: β-lactamase enzyme inhibition, OXA-1; assay type: biochemical; settings: Nitrocefin 100 μM, 486 nm; 15 min at 37° C. preincubation; read-out: IC50 OXA-1 (Class D)
T5 construct: made in house; host or cells: E. coli BL21(DE3)
Procedure, shortened: as §1

[2] = test system: E. coli ESBL4 expressing CTX-M-15; test: broth microdilution MIC, E. coli CTX-M-15; assay type: cell-based; settings: Fixed CAZ (ceftazidime) 4 μg/mL
Procedure, shortened: (§2)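 Visual MIC readout after 16-20 hours at 37° C, reflecting compound concentration that restores growth inhibition by a beta-lactam held constant at 4 μg/mL. Compound was titrated 2-fold, 32 to 0.25 μg/mL final, in cation-adjusted Mueller Hinton broth.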

[3] = test system: E. cloacae 144200 expressing Class C P99 AmpC; test: broth microdilution MIC, E. cloacae P99; assay type: cell-based; settings: Fixed CAZ (ceftazidime) 4 μg/mL
Procedure, shortened: as §2

[4] = test system: K. pneumoniae 156319 expressing KPC-3; test: broth microdilution MIC, K. pneumoniae KPC-3; assay type: cell-based; settings: Fixed Mero (meropenem) 4 μg/mL
Procedure, shortened: as §2

[5] = test system: P. aeruginosa Ps296 expressing VIM-2; test: broth microdilution MIC, P. aeruginosa VIM-2; assay type: cell-based; settings: Fixed Mero (meropenem) 4 μg/mL
Procedure, shortened: as §2

[6] = test system: K. pneumoniae A-1797 expressing KPC-2 and VIM-4; test: broth microdilution MIC, K. pneumoniae KPC-2 and VIM-4; assay type: cell-based; settings: Fixed Mero (meropenem) 4 μg/mL
Procedure, shortened: as §2

[7] = test system: S. aureus MSSA-7 producing penicillinase PC-1; test: broth microdilution MIC, S. aureus PC-1; assay type: cell-based; settings: Fixed Pip (piperacillin) 4 μg/mL
Procedure, shortened: as §2

T1 sequence (P0A3M1 22-286): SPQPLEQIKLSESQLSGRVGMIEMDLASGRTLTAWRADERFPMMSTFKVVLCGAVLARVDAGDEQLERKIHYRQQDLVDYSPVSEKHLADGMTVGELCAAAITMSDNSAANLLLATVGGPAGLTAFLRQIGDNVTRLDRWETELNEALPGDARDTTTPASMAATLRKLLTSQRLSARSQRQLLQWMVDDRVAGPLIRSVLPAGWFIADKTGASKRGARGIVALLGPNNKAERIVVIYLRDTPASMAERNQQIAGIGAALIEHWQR
T4 sequence (P05364 21-381): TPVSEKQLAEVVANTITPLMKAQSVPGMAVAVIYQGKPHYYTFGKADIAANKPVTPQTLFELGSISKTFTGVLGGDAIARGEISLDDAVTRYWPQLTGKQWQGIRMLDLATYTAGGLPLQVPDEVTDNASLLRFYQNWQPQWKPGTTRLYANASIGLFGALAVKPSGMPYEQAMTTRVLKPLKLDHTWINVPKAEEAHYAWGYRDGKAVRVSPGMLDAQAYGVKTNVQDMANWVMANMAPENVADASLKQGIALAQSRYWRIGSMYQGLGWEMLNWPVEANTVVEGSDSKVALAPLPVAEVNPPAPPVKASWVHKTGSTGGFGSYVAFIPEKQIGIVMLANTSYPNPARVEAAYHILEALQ
T5 sequence (P13661 26-276): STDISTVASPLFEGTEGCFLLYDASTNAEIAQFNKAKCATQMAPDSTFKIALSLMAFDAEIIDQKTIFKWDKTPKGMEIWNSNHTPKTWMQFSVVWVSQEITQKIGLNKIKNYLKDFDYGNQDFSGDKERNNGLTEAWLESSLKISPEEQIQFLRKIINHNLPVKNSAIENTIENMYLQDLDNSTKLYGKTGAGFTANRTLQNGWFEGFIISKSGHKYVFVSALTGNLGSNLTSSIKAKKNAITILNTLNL
T2 sequence (Q9F663 25-293, looked up): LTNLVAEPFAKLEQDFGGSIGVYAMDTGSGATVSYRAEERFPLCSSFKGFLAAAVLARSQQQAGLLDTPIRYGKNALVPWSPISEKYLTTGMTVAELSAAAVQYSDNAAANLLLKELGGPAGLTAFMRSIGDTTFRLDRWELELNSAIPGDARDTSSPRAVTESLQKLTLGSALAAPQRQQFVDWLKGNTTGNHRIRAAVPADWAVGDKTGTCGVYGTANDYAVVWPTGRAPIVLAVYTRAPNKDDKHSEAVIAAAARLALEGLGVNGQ

| SMILES | IC50 (SHV-5 β-lactamase) | IC50 (KPC-2 β-lactamase) | IC50 [1] | IC50 (p99 AmpC β-lactamase) | IC50 (OXA-1 β-lactamase) | MIC of exemplary compounds in presence of fixed β-lactams, E. coli ESBL4 CTX-M-15 [2] | MIC of exemplary compounds in presence of fixed β-lactams, E. cl. 144200 p99 AmpC [3] | MIC of exemplary compounds in presence of fixed β-lactams, K.P. 156319 KPC-3 [4] | MIC of exemplary compounds in presence of fixed β-lactams, P. aerug. Ps296 VIM-2 [5] | MIC of exemplary compounds in presence of fixed β-lactams, K.P. A-1797 KPC-2 VIM-4 [6] | MIC of exemplary compounds in presence of fixed β-lactams, S. aureus MSSA-7 PC-1 [7] |
| --- | --- | --- | --- | --- | --- | --- | --- | --- | --- | --- | --- |
| O=C(CCN1C(=O)CCC1=O)N[C@H]1Cc2cccc(C(=O)O)c2OB1O [Example 34, (R)-3-[3-(2,5-Dioxo-pyrrolidin-1-yl)-propionylamino]-2-hydroxy-3,4-dihydro-2H-benzo[e][1,2]oxaborinine-8-carboxylicacid] | < 100 nM | < 100 nM | 1000 to 10000 nM | < 100 nM | < 100 nM | C (C represents the MIC in the presence of ≤4 g/mL of a β-lactamase inhibitor) | C (C represents the MIC in the presence of ≤4 g/mL of a β-lactamase inhibitor) | B (B represents the MIC in the presence of between 8 and 32 g/mL of a β-lactamase inhibitor) | B (B represents the MIC in the presence of between 8 and 32 g/mL of a β-lactamase inhibitor) | B (B represents the MIC in the presence of between 8 and 32 g/mL of a β-lactamase inhibitor) | C (C represents the MIC in the presence of ≤4 g/mL of a β-lactamase inhibitor) |
| O=C(/C=C/c1cocn1)N[C@H]1Cc2cccc(C(=O)O)c2OB1O [Example 44, (R)-2-Hydroxy-3-(3-oxazol-4-yl-acryloylamino)-3,4-dihydro-2H-benzo[e][1,2]oxaborinine-8-carboxylicacid] | < 100 nM | < 100 nM | 100 to 1000 nM | < 100 nM | < 100 nM | C (C represents the MIC in the presence of ≤4 g/mL of a β-lactamase inhibitor) | C (C represents the MIC in the presence of ≤4 g/mL of a β-lactamase inhibitor) | C (C represents the MIC in the presence of ≤4 g/mL of a β-lactamase inhibitor) | C (C represents the MIC in the presence of ≤4 g/mL of a β-lactamase inhibitor) | B (B represents the MIC in the presence of between 8 and 32 g/mL of a β-lactamase inhibitor) | C (C represents the MIC in the presence of ≤4 g/mL of a β-lactamase inhibitor) |
| O=C(CCc1cocn1)N[C@H]1Cc2cccc(C(=O)O)c2OB1O [Example 45, (R)-2-Hydroxy-3-(3-oxazol-4-yl-propionylamino)-3,4-dihydro-2H-benzo[e][1,2]oxaborinine-8-carboxylic acid] | < 100 nM | < 100 nM | 1000 to 10000 nM | < 100 nM | < 100 nM | C (C represents the MIC in the presence of ≤4 g/mL of a β-lactamase inhibitor) | C (C represents the MIC in the presence of ≤4 g/mL of a β-lactamase inhibitor) | C (C represents the MIC in the presence of ≤4 g/mL of a β-lactamase inhibitor) | C (C represents the MIC in the presence of ≤4 g/mL of a β-lactamase inhibitor) | B (B represents the MIC in the presence of between 8 and 32 g/mL of a β-lactamase inhibitor) | C (C represents the MIC in the presence of ≤4 g/mL of a β-lactamase inhibitor) |
| CC(=O)N[C@H]1Cc2cccc(C(=O)O)c2OB1O [Example 61, (R)-3-Acetylamino-2-hydroxy-3,4-dihydro-2H-benzo[e][1,2]oxaborinine-8-carboxylic acid] | 100 to 1000 nM | < 100 nM | 1000 to 10000 nM | < 100 nM | 100 to 1000 nM | C (C represents the MIC in the presence of ≤4 g/mL of a β-lactamase inhibitor) | C (C represents the MIC in the presence of ≤4 g/mL of a β-lactamase inhibitor) | C (C represents the MIC in the presence of ≤4 g/mL of a β-lactamase inhibitor) | C (C represents the MIC in the presence of ≤4 g/mL of a β-lactamase inhibitor) | B (B represents the MIC in the presence of between 8 and 32 g/mL of a β-lactamase inhibitor) | C (C represents the MIC in the presence of ≤4 g/mL of a β-lactamase inhibitor) |
| O=C(Cc1ccc2c(c1)CNC2)N[C@H]1Cc2cccc(C(=O)O)c2OB1O [Example 64, (R)-3-(2-2,3-Dihydro-1H-isoindol-5-yl-acetylamino)-2-hydroxy-3,4-dihydro-2H-benzo[e][1,2]oxaborinine-8-carboxylic acid] | < 100 nM | < 100 nM | 100 to 1000 nM | < 100 nM | < 100 nM | C (C represents the MIC in the presence of ≤4 g/mL of a β-lactamase inhibitor) | C (C represents the MIC in the presence of ≤4 g/mL of a β-lactamase inhibitor) | C (C represents the MIC in the presence of ≤4 g/mL of a β-lactamase inhibitor) | C (C represents the MIC in the presence of ≤4 g/mL of a β-lactamase inhibitor) | B (B represents the MIC in the presence of between 8 and 32 g/mL of a β-lactamase inhibitor) | C (C represents the MIC in the presence of ≤4 g/mL of a β-lactamase inhibitor) |
